Source: PubChem BioAssay (NCI)
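Where inhibition never reached the appropriate level, the endpoint shown equals the highest concentration tested. Otherwise, values were interpolated linearly from a five-concentration, 48-hour dose response in 96-well plates. GI50 is the concentration that inhibits growth by half. The concentration for full growth arrest is given as TGI.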

Columns and labels:
Experiment in all cases: NCI tumour cell line growth inhibition, 48 h
UO-31 renal = tested on: UO-31 renal
M14 melanoma = tested on: M14 melanoma
BT-549 breast = tested on: BT-549 breast
T-47D breast = tested on: T-47D breast
MDA-MB-435 = tested on: MDA-MB-435
NCI/ADR-RES ovarian = tested on: NCI/ADR-RES ovarian
SF-295 CNS = tested on: SF-295 CNS
SK-MEL-2 melanoma = tested on: SK-MEL-2 melanoma
UACC-257 melanoma = tested on: UACC-257 melanoma
K-562 leukemia = tested on: K-562 leukemia

| SMILES | GI50 (UO-31 renal) [µM] | TGI (UO-31 renal) [µM] | GI50 (M14 melanoma) [µM] | TGI (M14 melanoma) [µM] | GI50 (BT-549 breast) [µM] | TGI (BT-549 breast) [µM] | GI50 (T-47D breast) [µM] | TGI (T-47D breast) [µM] | GI50 (MDA-MB-435) [µM] | TGI (MDA-MB-435) [µM] | GI50 (NCI/ADR-RES ovarian) [µM] | TGI (NCI/ADR-RES ovarian) [µM] | GI50 (SF-295 CNS) [µM] | TGI (SF-295 CNS) [µM] | GI50 (SK-MEL-2 melanoma) [µM] | TGI (SK-MEL-2 melanoma) [µM] | GI50 (UACC-257 melanoma) [µM] | TGI (UACC-257 melanoma) [µM] | GI50 (K-562 leukemia) [µM] | TGI (K-562 leukemia) [µM] |
| --- | --- | --- | --- | --- | --- | --- | --- | --- | --- | --- | --- | --- | --- | --- | --- | --- | --- | --- | --- | --- |
| COc1ccc2c(c1)C(=O)c1c-2n(CCCCl)c(=O)c2cc(N(C)C)ccc12 | > 100 | > 100 | > 100 | > 100 | 26 | > 100 | 34.6 | > 100 | 81.8 | > 100 | > 100 | > 100 | > 100 | > 100 | > 100 | > 100 | 43 | > 100 | > 100 | > 100 |
| CC1(C)CC[C@]2(C(=O)O)CC[C@]3(C)[C@H](CC[C@@H]4[C@@]5(C)CCC(=O)C(C)(C)[C@@H]5CC[C@]43C)[C@H]2[C@H]1OC(=O)C(F)(F)F | 13.7 | 27 | 8.34 | 27 | 9.3 | 22.3 | 3.84 | 23.9 | 10.6 | 26.9 | 12.3 | 26.2 | 14.6 | 30.1 | 14.1 | 30.9 | 10.1 | 25.2 | 3.61 | 20.9 |
| CN1CCN(c2cc(Nc3cc(C4CC4)[nH]n3)nc(Nc3ccc(CC(=O)NCc4cccc(F)c4)cc3)n2)CC1 | 1.69 | 4.73 | 0.752 | 2.41 | 2.96 | 19.9 | 2.27 | 13.8 | 0.44 | 2.63 | 18.8 | > 100 | 1.99 | 10.3 | 1.99 | 9.32 | 1.13 | 2.94 | 0.423 | 11.6 |
| COC(=O)[C@H](Cc1ccccc1)NC(=O)[C@@H](OC)[C@@H]1Cc2cc3cc(OC4CC(OC5CC(O)C(O)C(C)O5)C(O)C(C)O4)c(C)c(O)c3c(O)c2C(=O)[C@H]1OC1CC(OC2CC(OC3CC(C)(O)C(O)C(C)O3)C(O)C(C)O2)C(O)C(C)O1 (stereo not given in full) | 0.0343 | 0.332 | 0.0267 | 0.105 | 0.00713 | 0.0574 | 0.019 | > 14.3 | 0.0182 | 0.0642 | 4.22 | > 14.3 | 0.025 | 1.7 | 0.0173 | 0.0707 | 0.0103 | 2.54 | 0.0312 | > 14.3 |
| OC(C(=Nc1ccccc1)c1ccccc1)c1ccccc1 (stereo not given) |  | 39.8 |  | 39.1 |  | 9.51 |  | > 100 |  | 11.8 |  | 65.7 |  | 26.3 |  | 6.47 |  | 5.56 |  | > 100 |
| COP1(=S)OCC2CCC[C@@H]2O1 (stereo not given in full) |  | > 100 |  | > 100 |  | > 100 |  | > 100 |  | > 100 |  | > 100 |  | > 100 |  | > 100 |  | > 100 |  | > 100 |
| Cc1nc2ccc(NCCN(C)C)c3c(=O)c4cc(O)ccc4n1c23 |  | 9.14 |  | 15.9 |  | 19 |  | 14.8 |  | 13.7 |  | 7.29 |  | 5.87 |  | 13.4 |  | 13.6 |  | 4.25 |
| C=C1CO[C@@H]2C[C@@H]1CCC1(C)OC1CC/C(C)=C/CC[C@@]2(C)O (stereo not given in full) | 15.1 | 29.5 | 44.1 | > 100 | 26.4 | 61.5 | 26.7 | > 69.2 | 18.5 | 42.2 | 32.3 | > 67.4 | 18.4 | 44.7 | 43.2 | > 84.6 | 44.7 | > 100 | 0.302 | 7.02 |
| CC(C)CC(=O)CC(O)C(Cl)(Cl)Cl (stereo not given) |  | > 100 |  | > 100 |  | > 100 |  | > 100 |  | > 100 |  | > 100 |  | > 100 |  | > 100 |  | > 100 |  | > 100 |
| O=C(Nc1ccccc1F)c1ccc(NC2=C(Cl)C(=O)N(Cc3ccccc3)C2=O)cc1 | 1.86 | 3.6 | 4.02 | 17 | 3.13 | 9.62 | 3.06 | 8.01 | 3.07 | 11.5 | 11.5 | 23.6 | 10.7 | 22.6 | 6.84 | 18.4 | 12.5 | 29.8 | 2.68 | 12.1 |
| COC(=O)[C@]12CC[C@@H](C)[C@H](C)[C@@H]1C1=CC[C@@H]3[C@@]4(C)C=C(O)C(=O)C(C)=C4CC[C@@]3(C)[C@]1(C)CC2 | 11.6 | 26.3 | 11 | 29 | 15.5 | 37.4 | 5.86 | 30.8 | 13.8 | 28.2 | 12.7 | 31.7 | 15.8 | 37.9 | 14.6 | 31.6 | 20 | 42.2 | 14.3 | 39.2 |
| CC(C)(C)c1nnc2n(c1=O)N=CC(c1ccc(Br)cc1)S2 (stereo not given) | 20.7 | 47.4 | 24.4 | 63.1 | 24.3 | 74.7 | 23.8 | > 100 | 27.9 | 78.7 | 26.4 | 61.6 | 12.1 | 58.9 | 25.3 | 66.1 | 30.5 | 69.4 | 26.5 | > 100 |
| COc1ccc(C(=O)N/N=C/c2ccc(O)cc2O)cc1Nc1ccnc(C(F)(F)F)c1 | 2.64 | > 63.8 | 0.731 | 5.55 | 0.916 | 23.8 | 0.688 | 15 | 0.507 | 21.1 | 11.9 | > 100 | 1.07 | 20.6 | 9.23 | 30.6 | 1.69 | 16.9 | 0.485 | > 35.6 |
| O=C1C=C(Nc2nc(C(=O)O)cc(=O)[nH]2)c2ccccc2C1=O |  | > 100 |  | > 100 |  | > 100 |  | > 100 |  | > 100 |  | > 100 |  | > 100 |  | > 100 |  | > 100 |  | > 100 |
